From PMC8991007, “Benzylic Dehydroxylation of Echinocandin Antifungal Drugs Restores Efficacy against Resistance Conferred by Mutated Glucan Synthase” (Journal of the American Chemical Society, 2022)
*1 amine or outer side, *2 acyl side, *3 side chain or, on linkers, in order; H or OH if unused. Where a SMILES comes first, the peptide text is derived from it. Bridges are numbered along the chain shown (N, C = ends). [ ]: non-standard residue; d: D form. The star is where a group is joined. Orn(4R-OH,5R-OCH2CH2NMe3+) = C[N+](C)(C)CCO[C@@H](N[*:3])[C@H](O)C[C@H](N[*:1])C(=O)[*:2]; pTerphenylCO(4''-OnC5H11) = CCCCCOc1ccc(-c2ccc(-c3ccc(C(=O)*)cc3)cc2)cc1; hTyr(3S-OH,4S-OH) = N[C@H](C(=O)O)[C@H](O)[C@@H](O)c1ccc(O)cc1; Pro(3S-OH,4S-Me) = C[C@H]1CN[C@H](C(=O)O)[C@H]1O; hTyr(3R-OH) = N[C@H](C(=O)O)[C@H](O)Cc1ccc(O)cc1; Hyp = O=C(O)[C@@H]1C[C@@H](O)CN1

Tests used:
[1] = healthy volunteers, single 400 mg dose, a few hours after administration; cited from earlier work
C. glabrata = assay: Minimum inhibitory concentration broth double-dilution assay; assay type: cell-based, Candida glabrata; conditions: 24 h, 30 °C
Description: The antifungal activities of compounds 1 and 2 were evaluated against a panel of 50 strains of C. albicans and C. glabrata (Table S4), including echinocandin-resistant strains that were constructed by introducing mutations within and near the defined hotspots in the FKS1 and/or FKS2 genes.[27] To evaluate antifungal activity, we determined MIC values. The MIC was defined as the lowest drug concentration that led to turbidity (measured at 600 nm) of less than or equal to 35% of that of the untreated culture. As controls, we tested CSF, MCF, ANF, and RZF.
All of the tested compounds were dissolved in anhydrous DMSO to a concentration of 5 mg/mL. Candida strains were streaked from a glycerol stock onto YPAD agar plates and grown for 24 h at 30 °C. Colonies were suspended in 1 mL of PBS and diluted to an O.D. of 0.01 at 600 nm with YPAD broth and added into flat-bottom 96-well microplates (Corning) containing a gradient of twofold dilutions per tested compound with concentrations ranging from 64 to 0.0009 μg/mL. Control wells with no drug and blank wells without yeast cells containing YPAD only were also prepared. […] Each concentration was tested in triplicate, and results were confirmed by at least two independent sets of experiments.

Compound	MIC (C. glabrata; #9 C. glabrata EF1620)	MIC (C. glabrata; #10 C. glabrata TGL00277)	MIC (C. glabrata; #11 C. glabrata TGL00275)	MIC (C. glabrata; #12 C. glabrata CST78)	MIC (C. glabrata; #13 C. glabrata TGL00265)	MIC (C. glabrata; #14 C. glabrata TGL00264)	MIC (C. glabrata; #15 C. glabrata TGL00263)	MIC (C. glabrata; #16 C. glabrata TGL00065)	MIC (C. glabrata; #17 C. glabrata CST34)	MIC (C. glabrata; #18 C. glabrata TGL00258)	MIC (C. glabrata; #19 C. glabrata TGL00256)	MIC (C. glabrata; #20 C. glabrata TGL00107)	MIC (C. glabrata; #21 C. glabrata TGL00056)	MIC (C. glabrata; #22 C. glabrata M12)	MIC (C. glabrata; #23 C. glabrata TGL00270)	MIC (C. glabrata; #24 C. glabrata TGL00269)	MIC (C. glabrata; #25 C. glabrata TGL00268)	MIC (C. glabrata; #26 C. glabrata TGL00268)	MIC (C. glabrata; #27 C. glabrata EB0911)	MIC (C. glabrata; #28 C. glabrata TGL00261)	other results
CCCCCOc1ccc(-c2ccc(-c3ccc(C(=O)N[C@H]4C[C@@H](O)[C@@H](OCC[N+](C)(C)C)NC(=O)[C@@H]5[C@@H](O)[C@@H](C)CN5C(=O)[C@H]([C@@H](C)O)NC(=O)[C@H]([C@H](O)[C@@H](O)c5ccc(O)cc5)NC(=O)[C@@H]5C[C@@H](O)CN5C(=O)[C@H]([C@@H](C)O)NC4=O)cc3)cc2)cc1 [RZF, rezafungin] ({pTerphenylCO(4''-OnC5H11)}-[Orn(4R-OH,5R-OCH2CH2NMe3+)]T[Hyp][hTyr(3S-OH,4S-OH)]T[Pro(3S-OH,4S-Me)]; lactam 1-C)	0.015 µg/mL	64 µg/mL	16 µg/mL	0.008 µg/mL	16 µg/mL	32 µg/mL	32 µg/mL	> 64 µg/mL	0.008 µg/mL	> 64 µg/mL	4 µg/mL	> 64 µg/mL	> 64 µg/mL	0.008 µg/mL	> 64 µg/mL	1 µg/mL	> 64 µg/mL	> 64 µg/mL	0.015 µg/mL	16 µg/mL	Cmax [1]: ~17 µM; MIC (C. glabrata; #29 C. glabrata TGL00109): 64 µg/mL; MIC (C. glabrata; #30 C. glabrata TGL00259): > 64 µg/mL
CCCCCOc1ccc(-c2ccc(-c3ccc(C(=O)N[C@H]4C[C@@H](O)[C@@H](OCC[N+](C)(C)C)NC(=O)[C@@H]5[C@@H](O)[C@@H](C)CN5C(=O)[C@H]([C@@H](C)O)NC(=O)[C@H]([C@H](O)Cc5ccc(O)cc5)NC(=O)[C@@H]5C[C@@H](O)CN5C(=O)[C@H]([C@@H](C)O)NC4=O)cc3)cc2)cc1 [Compound 2, dehydroxy-RZF] ({pTerphenylCO(4''-OnC5H11)}-[Orn(4R-OH,5R-OCH2CH2NMe3+)]T[Hyp][hTyr(3R-OH)]T[Pro(3S-OH,4S-Me)]; lactam 1-C)	0.015 µg/mL	16 µg/mL	8 µg/mL	0.004 µg/mL	2 µg/mL	32 µg/mL	2 µg/mL	8 µg/mL	0.004 µg/mL	8 µg/mL	0.25 µg/mL	16 µg/mL	> 64 µg/mL	0.002 µg/mL	4 µg/mL	0.063 µg/mL	> 64 µg/mL	> 64 µg/mL	0.004 µg/mL	1 µg/mL	MIC (C. glabrata; #29 C. glabrata TGL00109): 64 µg/mL; MIC (C. glabrata; #30 C. glabrata TGL00259): 8 µg/mL; MIC (C. glabrata; #31 C. glabrata EF1237): 0.002 µg/mL; MIC (C. glabrata; #36 C. glabrata F15): 0.004 µg/mL; MIC (C. glabrata; #38 C. glabrata CBS138 (ATCC 2001)): 0.008 µg/mL; MIC (C. glabrata; #41 C. glabrata P35_2): 0.004 µg/mL; MIC (C. glabrata; #43 C. glabrata SLL2glab): 0.008 µg/mL; MIC (C. glabrata; #46 C. glabrata BG2): 0.008 µg/mL
